Measurements published in ChEMBL document CHEMBL1201862, “PubChem BioAssay data set” (2004).
Activity calls are given as the source filed them.

What was measured:
Caspase-3 = molecular target: T1, Caspase-3 (Homo sapiens, UniProt P42574); format: functional;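 also: Dose-response selectivity test against caspase-3 for candidate inhibitors of sentrin-specific proteases (SENPs)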
T1 sequence (P42574 whole entry): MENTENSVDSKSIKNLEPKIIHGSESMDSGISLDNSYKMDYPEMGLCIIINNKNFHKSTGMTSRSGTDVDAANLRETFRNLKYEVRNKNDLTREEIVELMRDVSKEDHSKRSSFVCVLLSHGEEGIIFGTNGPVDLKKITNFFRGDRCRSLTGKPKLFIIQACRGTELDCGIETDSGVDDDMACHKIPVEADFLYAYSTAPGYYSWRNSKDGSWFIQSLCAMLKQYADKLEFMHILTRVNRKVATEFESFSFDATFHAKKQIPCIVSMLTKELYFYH

[1] = molecular target: T2, Sentrin-specific protease 7 (Homo sapiens, UniProt Q9BQF6); format: functional;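 also: Luminescence-based dose-response confirmation of ultra-high-throughput screening hits, measuring inhibition of SENP7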
T2 sequence (Q9BQF6 whole entry): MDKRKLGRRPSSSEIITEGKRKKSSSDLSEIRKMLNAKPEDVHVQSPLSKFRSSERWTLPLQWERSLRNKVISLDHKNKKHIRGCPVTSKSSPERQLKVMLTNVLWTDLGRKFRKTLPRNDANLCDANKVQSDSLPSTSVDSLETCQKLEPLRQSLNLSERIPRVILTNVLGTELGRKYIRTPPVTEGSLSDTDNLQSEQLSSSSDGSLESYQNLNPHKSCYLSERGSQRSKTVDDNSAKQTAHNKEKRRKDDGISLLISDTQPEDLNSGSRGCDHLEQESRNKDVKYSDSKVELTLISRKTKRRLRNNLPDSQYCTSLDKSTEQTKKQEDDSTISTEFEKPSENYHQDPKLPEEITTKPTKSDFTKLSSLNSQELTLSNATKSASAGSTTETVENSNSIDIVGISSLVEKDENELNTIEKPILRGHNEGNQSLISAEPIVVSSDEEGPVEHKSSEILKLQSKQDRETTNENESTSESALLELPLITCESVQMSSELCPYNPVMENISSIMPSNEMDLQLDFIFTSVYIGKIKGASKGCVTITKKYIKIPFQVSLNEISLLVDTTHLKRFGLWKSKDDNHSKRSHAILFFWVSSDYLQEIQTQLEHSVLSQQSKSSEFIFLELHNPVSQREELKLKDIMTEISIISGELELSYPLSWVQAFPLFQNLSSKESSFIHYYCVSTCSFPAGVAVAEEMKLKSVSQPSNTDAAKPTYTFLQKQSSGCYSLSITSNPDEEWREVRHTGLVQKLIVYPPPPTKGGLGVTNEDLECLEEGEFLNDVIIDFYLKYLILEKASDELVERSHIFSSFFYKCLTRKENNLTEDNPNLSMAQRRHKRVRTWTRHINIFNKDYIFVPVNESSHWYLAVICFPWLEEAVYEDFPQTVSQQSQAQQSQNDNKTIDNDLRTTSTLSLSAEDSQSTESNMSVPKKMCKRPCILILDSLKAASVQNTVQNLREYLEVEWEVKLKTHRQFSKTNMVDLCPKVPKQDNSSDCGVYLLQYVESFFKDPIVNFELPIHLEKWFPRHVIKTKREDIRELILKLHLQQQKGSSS

[2] = molecular target: T3, Sentrin-specific protease 6 (Homo sapiens, UniProt Q9GZR1); format: functional;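 also: Luminescence-based dose-response confirmatory assay of SENP6 inhibition, following up an ultra-high-throughput screen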
T3 sequence (Q9GZR1 whole entry): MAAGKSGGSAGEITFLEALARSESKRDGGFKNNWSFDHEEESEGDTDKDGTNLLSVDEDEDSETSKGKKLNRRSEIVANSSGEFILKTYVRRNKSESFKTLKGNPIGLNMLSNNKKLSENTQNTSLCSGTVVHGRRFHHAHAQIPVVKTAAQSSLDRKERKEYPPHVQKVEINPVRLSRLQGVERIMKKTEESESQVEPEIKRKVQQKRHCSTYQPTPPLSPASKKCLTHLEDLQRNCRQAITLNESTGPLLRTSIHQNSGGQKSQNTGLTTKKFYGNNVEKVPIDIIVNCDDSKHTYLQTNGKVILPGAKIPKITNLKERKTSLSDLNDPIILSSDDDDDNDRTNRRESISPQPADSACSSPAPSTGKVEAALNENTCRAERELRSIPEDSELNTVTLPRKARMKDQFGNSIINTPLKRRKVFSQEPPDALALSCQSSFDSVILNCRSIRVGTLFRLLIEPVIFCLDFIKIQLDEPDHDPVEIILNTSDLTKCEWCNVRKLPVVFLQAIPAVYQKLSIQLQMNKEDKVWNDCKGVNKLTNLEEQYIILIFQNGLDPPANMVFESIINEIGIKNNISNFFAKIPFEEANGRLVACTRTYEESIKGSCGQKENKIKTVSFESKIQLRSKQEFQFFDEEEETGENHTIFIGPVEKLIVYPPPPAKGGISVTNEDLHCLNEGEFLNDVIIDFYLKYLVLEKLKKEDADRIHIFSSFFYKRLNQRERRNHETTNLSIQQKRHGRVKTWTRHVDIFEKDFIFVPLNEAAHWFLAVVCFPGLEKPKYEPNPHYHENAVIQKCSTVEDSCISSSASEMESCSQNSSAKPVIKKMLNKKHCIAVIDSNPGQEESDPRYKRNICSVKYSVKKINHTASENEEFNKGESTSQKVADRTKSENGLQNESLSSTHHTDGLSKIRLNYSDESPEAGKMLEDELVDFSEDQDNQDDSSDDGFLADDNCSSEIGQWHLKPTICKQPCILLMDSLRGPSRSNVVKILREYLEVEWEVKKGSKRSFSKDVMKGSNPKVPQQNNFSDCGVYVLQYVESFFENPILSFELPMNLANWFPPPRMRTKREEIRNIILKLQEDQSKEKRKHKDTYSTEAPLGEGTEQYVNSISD

[3] = molecular target: T4, Sentrin-specific protease 8 (Homo sapiens, UniProt Q96LD8); format: functional;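 also: luminescence read-out of SENP8 inhibition, dose-response confirmation following an ultra-high-throughput screen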
T4 sequence (Q96LD8 whole entry): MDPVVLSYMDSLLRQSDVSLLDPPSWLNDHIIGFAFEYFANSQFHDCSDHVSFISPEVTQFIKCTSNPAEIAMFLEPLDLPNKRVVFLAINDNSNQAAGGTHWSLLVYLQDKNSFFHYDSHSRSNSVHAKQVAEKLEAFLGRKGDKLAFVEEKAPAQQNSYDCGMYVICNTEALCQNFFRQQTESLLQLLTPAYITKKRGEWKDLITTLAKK

CHO-K1 = experiment: (§1) Counterscreen for antagonists of the orexin 1 receptor (OX1R; HCRTR1): Homogeneous time resolved fluorescence (HTRF)-based cell-based dose response assay to identify antagonists of the parental CHO-K1 cell line. [Related pubchem assays (depositor defined):AID434989, AID435008, AID463079, AID485270, AID492963, AID492964, AID492965, AID493232, AID504699, AID504701]; format: functional; settings: Cricetulus griseus
[4] = as §1, with “Fluorescence-based” for “Homogeneous time resolved fluorescence (HTRF)-based”, “cell-based high throughput” for “cell-based”, “CHO” for “CHO-K1”; format: functional
[5] = molecular target: T5, Orexin/Hypocretin receptor type 1 (Homo sapiens, UniProt O43613); experiment: Homogeneous Time Resolved Fluorescence (HTRF)-based cell-based high throughput dose response assay for antagonists of the orexin 1 receptor (OX1R; HCRTR1). [Related pubchem assays (depositor defined):AID434989, AID435008, AID463079, AID485270, AID492963, AID492964, AID492965, AID493232, AID504717, AID504718]; format: functional
T5 sequence (O43613 whole entry): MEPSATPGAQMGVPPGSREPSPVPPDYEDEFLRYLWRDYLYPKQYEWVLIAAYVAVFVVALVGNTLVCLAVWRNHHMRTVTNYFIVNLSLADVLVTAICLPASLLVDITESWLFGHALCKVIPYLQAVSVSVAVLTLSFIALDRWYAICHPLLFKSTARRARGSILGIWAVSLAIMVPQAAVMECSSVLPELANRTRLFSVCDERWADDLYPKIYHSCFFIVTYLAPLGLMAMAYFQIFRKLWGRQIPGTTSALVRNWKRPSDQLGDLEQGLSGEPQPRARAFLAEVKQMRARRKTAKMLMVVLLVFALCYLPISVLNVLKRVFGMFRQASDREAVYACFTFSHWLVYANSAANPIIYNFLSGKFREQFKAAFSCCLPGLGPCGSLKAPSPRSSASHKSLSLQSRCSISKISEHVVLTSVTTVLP

[6] = molecular target: T5, Orexin/Hypocretin receptor type 1; experiment: Fluorescence-based cell-based high throughput dose response assay for antagonists of the orexin 1 receptor (OX1R; HCRTR1). [Related pubchem assays (depositor defined):AID434989, AID435008, AID463079, AID485270, AID492963, AID492964, AID492965, AID493232, AID504717, AID504718]; format: functional
Orexin receptor type 2 [7] = molecular target: T6, Orexin receptor type 2 (Homo sapiens, UniProt O43614); experiment: Counterscreen assay for antagonists of the orexin 1 receptor (OX1R; HCRTR1): Fluorescence-based cell-based dose response assay for antagonists of the orexin 2 receptor (OX2R; HCRTR2), run by assay provider.; format: functional
T6 sequence (O43614 whole entry): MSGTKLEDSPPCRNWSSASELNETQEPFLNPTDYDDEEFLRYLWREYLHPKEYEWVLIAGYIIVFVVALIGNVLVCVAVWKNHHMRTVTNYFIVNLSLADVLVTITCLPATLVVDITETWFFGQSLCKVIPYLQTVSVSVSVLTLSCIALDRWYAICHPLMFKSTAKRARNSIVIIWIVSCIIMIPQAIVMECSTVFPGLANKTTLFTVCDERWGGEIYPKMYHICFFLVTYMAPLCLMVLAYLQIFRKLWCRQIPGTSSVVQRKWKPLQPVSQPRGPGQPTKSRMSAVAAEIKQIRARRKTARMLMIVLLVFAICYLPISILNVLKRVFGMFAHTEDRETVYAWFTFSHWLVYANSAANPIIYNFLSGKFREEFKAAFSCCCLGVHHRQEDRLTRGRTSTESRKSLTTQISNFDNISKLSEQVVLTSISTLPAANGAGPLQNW

Orexin receptor type 2 [8] = molecular target: T6, Orexin receptor type 2; experiment: Counterscreen assay for antagonists of the orexin 1 receptor (OX1R; HCRTR1): Homogeneous Time Resolved Fluorescence (HTRF)-based cell-based dose response assay for antagonists of the orexin 2 receptor (OX2R; HCRTR2), run by assay provider.; format: functional
[9] = molecular target: Luciferin 4-monooxygenase (Photinus pyralis, UniProt P08659); experiment: firefly luciferase enzyme inhibitors, dose response, biochemical, luminescence (AID 1891)
Sequence of Luciferin 4-monooxygenase (P08659 whole entry): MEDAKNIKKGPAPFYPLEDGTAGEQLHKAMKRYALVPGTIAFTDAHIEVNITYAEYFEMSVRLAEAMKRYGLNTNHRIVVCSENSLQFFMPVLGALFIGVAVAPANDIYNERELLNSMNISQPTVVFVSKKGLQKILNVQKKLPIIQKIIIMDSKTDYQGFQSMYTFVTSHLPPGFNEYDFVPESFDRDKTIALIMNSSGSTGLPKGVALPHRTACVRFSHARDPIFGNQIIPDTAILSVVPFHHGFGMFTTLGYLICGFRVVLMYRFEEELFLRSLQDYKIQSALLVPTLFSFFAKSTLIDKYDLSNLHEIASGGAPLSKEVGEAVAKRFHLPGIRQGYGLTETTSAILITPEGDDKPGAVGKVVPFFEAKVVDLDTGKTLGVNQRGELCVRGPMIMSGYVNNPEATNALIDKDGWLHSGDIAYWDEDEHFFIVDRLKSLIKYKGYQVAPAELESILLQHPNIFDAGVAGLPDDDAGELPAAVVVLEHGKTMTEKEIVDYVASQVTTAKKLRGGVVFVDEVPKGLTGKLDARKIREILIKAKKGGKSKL

[10] = Luminescence Cell-Based Dose Confirmation HTS to Identify Inhibitors of Platelet Dense Granule Release. [Related pubchem assays: 1663 (Primary HTS), 1678 (Summary of Project)]; format: functional
[11] = growth suppression of PTEN-null colon cells, dose response, cell-based, HCT116 PTEN knockout (AID 1047); format: functional;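 also: HCT116 colon tumor cells with PTEN knocked out; cells exposed to compound for 60 hours before readout; potency for loss of cell viability measured by luminescence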
[12] = growth suppression of beta-catenin-knockout colon cells, dose response, cell-based, HCT116, human colon tumor (AID 1045); format: functional;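 also: HCT116 colon tumor cells with beta catenin knocked out; cells exposed to compound for 60 hours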

IC50 (Caspase-3)	IC50 [1]	IC50 [2]	SMILES	IC50 [3]	IC50 (CHO-K1)	IC50 [4]	IC50 [5]	IC50 [6]	IC50 (Orexin receptor type 2 [7])	IC50 (Orexin receptor type 2 [8])	EC50 [9]	EC50 [10]	EC50 [11]	EC50 [12]
26 µM (active)	3.53 µM (active)	12.5 µM (active)	Cc1cc(-c2csc(Nc3ccccn3)n2)ccc1F	19.2 µM (active)										
			CCN(C(=O)CO/N=C/c1ccc(OC)cc1OC)c1c(N)n(Cc2ccccc2)c(=O)[nH]c1=O		> 66.2 µM (inactive)	> 49.7 µM (inactive)	0.317 µM (active)	5.93 µM (active)	29 µM (inactive)	1.77 µM (active)				
			CCn1c2ccccc2c2nc3ccccc3nc21		> 66.3 µM (inactive)	> 49.8 µM (inactive)	0.914 µM (active)	6.2 µM (active)	35.2 µM (inactive)	6.65 µM (active)				
16.8 µM (active)	9.8 µM (active)	87.7 µM (active)	O=c1cc(-c2ccc(O)cc2)oc2ccc(O)cc12	11.6 µM (active)										
			Cc1noc(C)c1S(=O)(=O)Nc1ccc(O)c2c(=O)cc(-c3ccccc3Cl)oc12		> 66.2 µM (inactive)	> 49.7 µM (inactive)	0.151 µM (active)	23.6 µM (inactive)	16.8 µM (inactive)	5.63 µM (active)				
			CC(NS(=O)(=O)c1ccc(OCC(=O)Nc2cccc([N+](=O)[O-])c2)cc1)c1ccccc1 (stereo not given)		> 66.2 µM (inactive)	> 49.8 µM (inactive)	0.688 µM (active)	13.6 µM (inactive)	> 88.8 µM (inactive)	> 50 µM (inactive)			18.4 µM (active)	18.2 µM (active)

SMILES	IC50 (Caspase-3)	IC50 [1]	IC50 [2]	IC50 [3]	IC50 (CHO-K1)	IC50 [4]	IC50 [5]	IC50 [6]	IC50 (Orexin receptor type 2 [7])	IC50 (Orexin receptor type 2 [8])	EC50 [9]	EC50 [10]	EC50 [11]	EC50 [12]
O=C1/C(=C/c2ccc([N+](=O)[O-])cc2)CCc2ccccc21	5.9 µM (active)	0.696 µM (active)	0.789 µM (active)	1.13 µM (active)							0.404 µM (active)	1.11 µM (active)		
